From patent US20070093520A1, “Method of treatment of diarrhea-predominant irritable bowel syndrome in a subject” (priority 2005, published 2007)
Read-outs that look alike come from different tables or passages of the source.

System: diarrhea-predominant IBS subjects
Assay type: in vivo, human
Settings: for TEAE incidence: constipation / TEAE incidence: nausea: 3007 Study
Experimental: The study was performed in approximately 150 study centers. Approximately 1600 eligible subjects were to be given cilansetron 2 mg TID. At Visit 1, pre-treatment assessments were conducted. […] Subjects were to return to the study site one month later for Visit 3 (Day 31) for their first interim assessment. […] All subjects who discontinued from the study were to have the same post-study assessments required at Visit 7 performed at their early termination visit. […]
Stool specimens were analyzed at every visit for occult blood. An independent GERB had been established to provide advice on GI AEs during the course of the study.
Adverse events were assessed at Baseline, at each clinic visit, and at the end of the study (Month 12 or the early termination visit). All AEs, which occurred during the study were followed up in accordance with good medical practice until resolved or judged no longer clinically significant, or if a condition was chronic, until fully characterized. Adverse events could occur in the specified follow-up period and, regardless of the interval since the last administration of the study medication, were treated in the same manner as an AE which occurred during the treatment with study medication. Each AE was evaluated for duration, severity, seriousness, and causal relationship to the investigational drug. The action taken and the outcome were also recorded.
Specifically, subjects who were lost to follow-up and had no post-Baseline contact with the site were excluded from the Safety population. The subjects who discontinued from the study due to lost to follow-up were identified based on the information collected on the study termination CRF page.
After the pretreatment assessment at Visit 1 (Days […] to −3), subjects were to return to the study site for a Baseline assessment and start the treatment at Visit 2 (Day 1).
For the by time-interval analyses of disposition, prevalence of AEs, and of markedly abnormal and predefined changes in laboratory values, vital signs, and ECGs, the following interval windows were used:
Adverse events that were already present prior to the first dose of cilansetron study medication but increased in severity afterwards were considered as treatment-emergent.
The 5% cutoff point was based on the incidence within higher level terms.
Subjects were counted at most once for each primary system organ class and preferred term. Serious AEs that resolved prior to receiving study medication or occurred more than 30 days after the last dose of study medication were not included in the incidence tables. A listing of all SAEs is presented; SAEs with onset prior to receiving study medication or more than 30 days after discontinuation of study medication were flagged. The listing presents lower level term and preferred term of the SAE, severity, action taken, outcome, and relationship of the SAE, start and stop date of the SAE, study day of onset of the SAE, age, race, and sex.

[1] = 2 mg, Safety Population, 3008, under Neoplasms Benign, Malignant and Unspecified
[2] = 2 mg, Safety Population, 3008, under Pregnancy, Puerperium and Perinatal Conditions
[3] = 2 mg, Safety Population, 3008, under Social Circumstances
[4] = 2 mg, Safety Population, 3008, under Surgical and Medical Procedures
[5] = 2 mg, Safety Population, 3008, under Vascular Disorders

Cc1nccn1C[C@H]1CCc2c(c3cccc4c3n2CCC4)C1=O [cilansetron, (R)-(−)-4,5,6,8,9,10-hexahydro-10-[(2-methyl-1H-imidazol-1-yl)methyl]-11H-pyrido-[3,2,1-jk]-carbazol-11-one]
TEAE incidence: Haemangioma of Liver [1]: 2 (<1%) n (%)
TEAE incidence: Hepatobiliary Neoplasms Benign [1]: 2 (<1%) n (%)
TEAE incidence: Large Cell Carcinoma of the Respiratory Tract Stage Unspecified [1]: 1 (<1%) n (%)
TEAE incidence: Lip and Oral Cavity Neoplasms Benign [1]: 1 (<1%) n (%)
TEAE incidence: Lipoma NOS [1]: 2 (<1%) n (%)
TEAE incidence: Lung Adenocarcinoma NOS [1]: 1 (<1%) n (%)
TEAE incidence: Non-Hodgkin's Lymphoma NOS [1]: 1 (<1%) n (%)
TEAE incidence: Non-Hodgkin's Lymphomas NEC [1]: 1 (<1%) n (%)
TEAE incidence: Non-Small Cell Neoplasms Malignant of the Respiratory Tract Cell Type Specified [1]: 2 (<1%) n (%)
TEAE incidence: Pancreatic Carcinoma NOS [1]: 1 (<1%) n (%)
TEAE incidence: Pancreatic Neoplasms Malignant (Excl Islet Cell and Carcinoid) [1]: 1 (<1%) n (%)
TEAE incidence: Rectal Cancer NOS [1]: 1 (<1%) n (%)
TEAE incidence: Rectal Neoplasms Malignant [1]: 1 (<1%) n (%)
TEAE incidence: Salivary Gland Adenoma [1]: 1 (<1%) n (%)
TEAE incidence: Soft Tissue Neoplasms Benign NEC [1]: 2 (<1%) n (%)
TEAE incidence: Urinary Tract Neoplasms Benign [1]: 1 (<1%) n (%)
TEAE incidence: Urinary Tract Neoplasms Unspecified Malignancy NEC [1]: 1 (<1%) n (%)
TEAE incidence: Uterine Fibroids* [1]: 3 (<1%) n (%)
TEAE incidence: Uterine Neoplasms Benign* [1]: 3 (<1%) n (%)
TEAE incidence: Normal Pregnancy, Labour and Delivery* [2]: 2 (<1%) n (%)
TEAE incidence: Pregnancy NOS* [2]: 2 (<1%) n (%)
TEAE incidence: Genital Haemorrhage NOS (2 mg, Safety Population, 3008, under Reproductive Tract Disorders NEC (Excl Neoplasms)): 1 (<1%) n (%)
TEAE incidence: Age Related Issues [3]: 3 (<1%) n (%)
TEAE incidence: Menopause* [3]: 3 (<1%) n (%)
TEAE incidence: Bone Therapeutic Procedures NEC [4]: 1 (<1%) n (%)
TEAE incidence: Fallopian Tube Therapeutic Procedures* [4]: 1 (<1%) n (%)
TEAE incidence: Osteosynthesis [4]: 1 (<1%) n (%)
TEAE incidence: Tubal Ligation* [4]: 1 (<1%) n (%)
TEAE incidence: Bruising, Ecchymosis and Purpura [5]: 1 (<1%) n (%)
TEAE incidence: Circulatory Collapse and Shock [5]: 1 (<1%) n (%)
TEAE incidence: Essential Hypertension [5]: 1 (<1%) n (%)
TEAE incidence: Hypertension Aggravated [5]: 4 (<1%) n (%)
TEAE incidence: Hypertension NOS [5]: 15 (1%) n (%)
TEAE incidence: Non-Site Specific Vascular Disorders NEC [5]: 1 (<1%) n (%)
TEAE incidence: Orthostatic Hypotension [5]: 3 (<1%) n (%)
TEAE incidence: Peripheral Embolism and Thrombosis [5]: 1 (<1%) n (%)
TEAE incidence: Periphlebitis [5]: 1 (<1%) n (%)
TEAE incidence: Petechiae [5]: 1 (<1%) n (%)
TEAE incidence: Phlebitis NEC [5]: 4 (<1%) n (%)
TEAE incidence: Phlebitis NOS [5]: 2 (<1%) n (%)
TEAE incidence: Phlebitis Superficial [5]: 1 (<1%) n (%)
TEAE incidence: Shock [5]: 1 (<1%) n (%)
TEAE incidence: Varicose Veins NOS [5]: 1 (<1%) n (%)
TEAE incidence: Varicose Veins Non-Site Specific [5]: 1 (<1%) n (%)
TEAE incidence: Vascular Disorder NOS [5]: 1 (<1%) n (%)
TEAE incidence: Vascular Hypertensive Disorders NEC [5]: 20 (1%) n (%)
TEAE incidence: Vascular Hypotensive Disorders [5]: 3 (<1%) n (%)
TEAE incidence: Venous Thrombosis Deep Limb [5]: 1 (<1%) n (%)
TEAE incidence: constipation (all subjects): 15%
TEAE incidence: nausea (all subjects): 5%
TEAE incidence: constipation (females): 19%
TEAE incidence: nausea (females): 7%
TEAE incidence: constipation (males): 11%
TEAE incidence: nausea (males): 3%
TEAE incidence: Abdominal Discomfort (Cilansetron 2 mg, N=1454): 6 (<1%) n (%)
TEAE incidence: Abdominal Distension (Cilansetron 2 mg, N=1454): 57 (4%) n (%)
TEAE incidence: Abdominal Findings Abnormal (Cilansetron 2 mg, N=1454): 2 (<1%) n (%)
TEAE incidence: Abdominal Hernias, Site Unspecified (Cilansetron 2 mg, N=1454): 1 (<1%) n (%)
TEAE incidence: Abdominal Pain Aggravated (Cilansetron 2 mg, N=1454): 8 (<1%) n (%)
TEAE incidence: Abdominal Pain Lower (Cilansetron 2 mg, N=1454): 21 (1%) n (%)
TEAE incidence: Abdominal Pain Upper (Cilansetron 2 mg, N=1454): 50 (3%) n (%)
TEAE incidence: Abdominal Rigidity (Cilansetron 2 mg, N=1454): 1 (<1%) n (%)
TEAE incidence: Abnormal Sleep-Related Events (Cilansetron 2 mg, N=1454): 1 (<1%) n (%)
TEAE incidence: Abscess Limb (Cilansetron 2 mg, N=1454): 1 (<1%) n (%)
TEAE incidence: Abscess NOS (Cilansetron 2 mg, N=1454): 1 (<1%) n (%)
TEAE incidence: Absence Seizures (Cilansetron 2 mg, N=1454): 1 (<1%) n (%)
TEAE incidence: Acute and Chronic Pancreatitis (Cilansetron 2 mg, N=1454): 1 (<1%) n (%)
TEAE incidence: Aerophagia (Cilansetron 2 mg, N=1454): 1 (<1%) n (%)
TEAE incidence: Alanine Aminotransferase Increased (Cilansetron 2 mg, N=1454): 19 (1%) n (%)
TEAE incidence: Anal Abscess (Cilansetron 2 mg, N=1454): 1 (<1%) n (%)
TEAE incidence: Anal Discomfort (Cilansetron 2 mg, N=1454): 3 (<1%) n (%)
TEAE incidence: Anal Fissure (Cilansetron 2 mg, N=1454): 5 (<1%) n (%)
TEAE incidence: Anal Haemorrhage (Cilansetron 2 mg, N=1454): 2 (<1%) n (%)
TEAE incidence: Anal Ulcer (Cilansetron 2 mg, N=1454): 1 (<1%) n (%)
TEAE incidence: Anal and Colorectal Neoplasms NEC (Cilansetron 2 mg, N=1454): 1 (<1%) n (%)
TEAE incidence: Anal and Rectal Disorders NEC (Cilansetron 2 mg, N=1454): 8 (<1%) n (%)
TEAE incidence: Anal and Rectal Pains (Cilansetron 2 mg, N=1454): 7 (<1%) n (%)
TEAE incidence: Anal and Rectal Signs and Symptoms (Cilansetron 2 mg, N=1454): 7 (<1%) n (%)
TEAE incidence: Anal and Rectal Ulcers and Perforation (Cilansetron 2 mg, N=1454): 2 (<1%) n (%)
TEAE incidence: Antibiotic Associated Colitis (Cilansetron 2 mg, N=1454): 1 (<1%) n (%)
TEAE incidence: Aphthous Stomatitis (Cilansetron 2 mg, N=1454): 1 (<1%) n (%)
TEAE incidence: Appendiceal Abscess (Cilansetron 2 mg, N=1454): 1 (<1%) n (%)
TEAE incidence: Appendicitis (Cilansetron 2 mg, N=1454): 1 (<1%) n (%)
TEAE incidence: Arterial Pressure NOS Increased (Cilansetron 2 mg, N=1454): 1 (<1%) n (%)
TEAE incidence: Aspartate Aminotransferase Increased (Cilansetron 2 mg, N=1454): 16 (1%) n (%)
TEAE incidence: Benign Oral Cavity Neoplasms (Cilansetron 2 mg, N=1454): 1 (<1%) n (%)
TEAE incidence: Bilirubin Urine (Cilansetron 2 mg, N=1454): 1 (<1%) n (%)
TEAE incidence: Blood Alkaline Phosphatase NOS Increased (Cilansetron 2 mg, N=1454): 7 (<1%) n (%)
TEAE incidence: Blood Bilirubin Increased (Cilansetron 2 mg, N=1454): 5 (<1%) n (%)
TEAE incidence: Blood Bilirubin Unconjugated Increased (Cilansetron 2 mg, N=1454): 1 (<1%) n (%)
TEAE incidence: Blood Cholesterol Increased (Cilansetron 2 mg, N=1454): 25 (2%) n (%)
TEAE incidence: Blood Creatine Phosphokinase Increased (Cilansetron 2 mg, N=1454): 31 (2%) n (%)
TEAE incidence: Blood Creatinine Increased (Cilansetron 2 mg, N=1454): 1 (<1%) n (%)
TEAE incidence: Blood Glucose Increased (Cilansetron 2 mg, N=1454): 2 (<1%) n (%)
TEAE incidence: Blood Potassium Increased (Cilansetron 2 mg, N=1454): 3 (<1%) n (%)
TEAE incidence: Blood Pressure (Cilansetron 2 mg, N=1454): 1 (<1%) n (%)
TEAE incidence: Blood Pressure Increased (Cilansetron 2 mg, N=1454): 5 (<1%) n (%)
TEAE incidence: Blood Thyroid Stimulating Hormone Increased (Cilansetron 2 mg, N=1454): 2 (<1%) n (%)
TEAE incidence: Blood Triglycerides Increased (Cilansetron 2 mg, N=1454): 11 (<1%) n (%)
TEAE incidence: Blood Urea Increased (Cilansetron 2 mg, N=1454): 2 (<1%) n (%)
TEAE incidence: Blood Uric Acid Increased (Cilansetron 2 mg, N=1454): 7 (<1%) n (%)
TEAE incidence: Blood Urine Present (Cilansetron 2 mg, N=1454): 11 (<1%) n (%)
TEAE incidence: Blood in Stool (Cilansetron 2 mg, N=1454): 13 (<1%) n (%)
TEAE incidence: Body Temperature Decreased (Cilansetron 2 mg, N=1454): 2 (<1%) n (%)
TEAE incidence: Body Temperature Increased (Cilansetron 2 mg, N=1454): 5 (<1%) n (%)
TEAE incidence: Body Tinea (Cilansetron 2 mg, N=1454): 2 (<1%) n (%)
TEAE incidence: Bowel Sounds Abnormal (Cilansetron 2 mg, N=1454): 1 (<1%) n (%)
TEAE incidence: Bronchitis Acute NOS (Cilansetron 2 mg, N=1454): 24 (2%) n (%)
TEAE incidence: Bronchitis Chronic NOS (Cilansetron 2 mg, N=1454): 2 (<1%) n (%)
TEAE incidence: Bronchitis NOS (Cilansetron 2 mg, N=1454): 27 (2%) n (%)
TEAE incidence: Bronchopneumonia NOS (Cilansetron 2 mg, N=1454): 1 (<1%) n (%)
TEAE incidence: Burning Sensation NOS (Cilansetron 2 mg, N=1454): 1 (<1%) n (%)
TEAE incidence: Campylobacter Gastroenteritis (Cilansetron 2 mg, N=1454): 1 (<1%) n (%)
